Test results as given in PubChem BioAssay (NCI).
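These data come from cells grown in 96-well plates and exposed to compound for 48 hours at five concentrations. TGI is the concentration that stops growth completely.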

Assays:
Test in all cases: growth of human tumour cells (NCI), 48 h
[1] = tested on: ACHN renal
[2] = tested on: CCRF-CEM leukemia
[3] = tested on: EKVX NSCLC
[4] = tested on: HCC-2998 colon
[5] = tested on: HCT-15 colon
[6] = tested on: K-562 leukemia
[7] = tested on: KM12 colon
[8] = tested on: NCI-H23 lung
[9] = tested on: NCI-H460 lung
[10] = tested on: NCI-H522 lung
[11] = tested on: OVCAR-4 ovarian
[12] = tested on: OVCAR-8 ovarian
[13] = tested on: SNB-19 CNS
[14] = tested on: SNB-75 CNS
[15] = tested on: UACC-257 melanoma
[16] = tested on: UO-31 renal
[17] = tested on: MDA-MB-435
[18] = tested on: MDA-N
[19] = tested on: PC-3 prostate
[20] = tested on: BT-549 breast

Structure (SMILES) | TGI [1] [µM] | TGI [2] [µM] | TGI [3] [µM] | TGI [4] [µM] | TGI [5] [µM] | TGI [6] [µM] | TGI [7] [µM] | TGI [8] [µM] | TGI [9] [µM] | TGI [10] [µM] | TGI [11] [µM] | TGI [12] [µM] | TGI [13] [µM] | TGI [14] [µM] | TGI [15] [µM] | TGI [16] [µM] | TGI [17] [µM] | TGI [18] [µM] | TGI [19] [µM] | TGI [20] [µM]
CC(OC1CC(=O)CC2C(=O)C=CC(=O)C12)c1ccccc1 (configuration not stated) | 24.1 | 9.54 | 30.6 | 29.7 | 31.4 | > 100 | 32.4 | 33.6 | > 59.4 | 2.98 | 32.4 | 33.2 | > 55.9 | > 57.7 | 35.4 | 29.5 |  |  |  | 
CCOC(=O)C1(Br)C(c2ccccc2)NC(=O)N(C2OC(COC(=O)c3ccccc3)C(OC(=O)c3ccccc3)C2OC(=O)c2ccccc2)C1(C)Br (configuration not stated) | > 100 | 18.8 | > 94.5 | > 100 | > 50.1 | 19.3 | 99.6 | > 100 | > 100 | 20.3 | 43.4 | > 100 | > 100 | > 90.7 | 52.4 | > 94.8 |  |  |  | 
CC(C)c1cccc(C(C)C)c1NC(=O)C(=O)CC(=O)CC(c1ccccc1)c1c(O)c2ccccc2oc1=O (configuration not stated) | > 100 | > 100 | > 100 | > 100 |  | > 100 | > 100 | > 100 | > 100 | > 100 | > 100 | > 100 | > 100 |  | > 100 | > 100 |  |  |  | 
O=C1NC(=O)[C@@H](OCC2CCCCC2)[C@@H]2OCC3OC(C(O)C3O)C12 (some centres not stated) | > 100 | > 100 | > 100 | > 100 | > 100 |  | > 100 | > 100 | > 100 |  | > 100 | > 100 | > 100 |  | > 100 |  | > 100 | > 100 | > 100 | 
Nc1ccc(C(=O)NN2C(=O)C(Cl)C2c2cc(Br)cc(Br)c2O)cc1 (configuration not stated) | 61.9 | > 100 | 59.5 | > 100 | > 100 |  | > 100 | 58 | > 100 | > 100 | > 100 | > 100 | > 100 | > 100 | 85.9 | 22.4 |  |  |  | 
Fc1ccc2c(c1)SC1Oc3ccccc3-c3c1c-2nn3-c1ccccc1 (configuration not stated) | > 100 | > 100 | > 100 | > 100 |  | > 100 | > 100 | > 100 | > 100 | > 100 |  | > 100 |  | > 100 | > 100 | > 100 |  |  |  | 
COc1cc(C(C#N)NNC(=O)Cc2ccccc2)cc(OC)c1OC (configuration not stated) | > 100 |  |  |  | > 100 | > 100 | > 100 | > 100 | > 100 | > 100 | > 100 | > 100 |  | > 100 | > 100 | > 100 |  |  |  | 
CN(C(=O)[C@@H](NC(=O)OC(C)(C)C)c1ccccc1)[C@H]1CCCC[C@@H]1N1CCCC1 | > 100 |  | > 100 |  | > 100 | > 100 | > 100 | > 100 |  | > 100 | > 100 | > 100 | > 100 |  | > 100 | > 100 | > 100 |  | > 100 | > 100
CC(C)(O)/C=C\P(C)(=O)c1ccccc1 (configuration not stated) | > 100 |  | > 100 | > 100 | > 100 | > 100 | > 100 | > 100 | > 100 | > 100 | > 100 | > 100 | > 100 | > 100 | > 100 |  | > 100 | > 100 | > 100 | 
CC1(C)C(=O)N(O)C(C)(C)N1N=O | > 10 | > 10 | > 10 | > 10 | > 10 | > 10 | > 10 | > 10 | > 10 | > 10 | > 10 | > 10 | > 10 |  | > 10 | > 10 | > 10 |  | > 10 | > 10
CCCCNC(=O)OCC(COc1ccccc1OC)OC(=O)NCCCC (configuration not stated) | > 100 | > 100 | > 100 | > 100 | > 100 | > 100 | > 100 | > 100 | > 100 | > 100 | > 100 | > 100 | > 100 | > 100 | > 100 | > 100 |  |  |  | 
C=CC1(c2ccccc2Cl)N/C(=C/OCC)CO1 (configuration not stated) | > 100 | > 100 | > 100 | > 100 | > 100 | > 100 | > 100 | > 100 | > 100 | > 100 | > 100 | > 100 | > 100 | > 100 | > 100 | > 100 |  |  |  | 
O=[N+]([O-])c1cc2c(cc1O)[nH]c1cccc([N+](=O)[O-])c12 | > 100 | > 100 |  | > 100 | > 100 | > 100 | > 100 | > 100 | > 100 | > 100 | > 100 | > 100 | > 100 | > 100 | > 100 | > 100 |  |  |  | 
COc1ccc2nc3ccccc3c(NCCCCCN(CCCl)CCCl)c2c1 | 0.748 | 0.118 | 4.1 | 0.23 |  | 0.502 | 2.14 | 0.986 | 0.192 | 0.017 | 0.771 | 2.2 | 0.914 | 0.911 |  | 0.418 |  |  |  | 
COc1ccc(OC)c(/C=C/C(=O)C(C)(C)C)c1 | 39.7 | 44.5 | 43.9 | 39.7 | 41.2 | 55.8 | 52.9 | 40.4 | > 100 | 30.4 | 49 | 38 | 32.4 | 56.8 |  |  |  |  |  | 
CCOc1ccccc1NC(=O)C(=O)C(C(=O)c1ccc2ccccc2c1)C1OC(=O)c2ccccc21 (configuration not stated) | > 100 | 69.1 | 77.3 | 22.9 | 33.6 | > 100 | 59.5 | 26.2 | 52.2 | 27.4 | 24.6 | 38.8 | 22 | 31 | 50.9 | 29.1 |  |  |  | 
CCCCCCCCCCCCC/C=C1\C[C@H](O)COC1=O | 29.4 | 36.6 | 32 | 37.2 | 32.2 | 33.1 | 30.1 | 36.4 | 33.4 | 33.5 | 32.7 |  | 32.9 | 30.7 | 28.4 | 32.6 |  |  |  | 
CN/C=C(/c1ccc(OC)cc1)C(O)c1ccc(OC)c(OC)c1 (configuration not stated) | > 100 | > 100 | > 100 | > 100 | > 100 | > 100 | > 100 | > 100 | > 100 | > 100 | > 100 | > 100 | > 100 | > 100 | > 100 | > 100 |  |  |  | 
Nc1ccc2ncc(Nc3ccc(F)cc3)nc2c1 | > 100 | > 100 | > 100 | > 100 | > 100 | > 100 | > 100 | > 100 | > 100 | > 100 | > 100 | > 100 | > 100 | > 100 | > 100 | > 100 |  |  |  | 
NCCn1ccc(NC(c2ccccc2)(c2ccccc2)c2ccccc2)nc1=O | > 100 |  | 59.9 | 31.9 | > 100 | 44.9 | 52.3 |  | 37.9 | 32.8 | > 100 | > 100 |  | 33.9 | 36.2 | > 100 |  |  |  | 
CC(C)[C@H]1CO[C@@H]2O[C@H](C)CC(=O)N21 | > 100 | > 100 | > 100 |  | > 100 | > 100 | > 100 | > 100 | > 100 | > 100 | > 100 | > 100 | > 100 | > 100 | > 100 | > 100 |  |  |  | 
CC(=O)OCC1OC(O[C@@H]2C[C@H]3C(C)(C)[C@H](OC(C)=O)CC[C@]3(C)[C@H]3CC[C@]4(C)C(=CC[C@H]4[C@@H](C)C[C@@H](O)[C@H](O)C(C)(C)O)[C@@]32C)C(O)C(O)C1O (some centres not stated) | 30.4 | 35.1 | 40.2 | 35.1 | 31.4 | 37.7 |  | 35.5 | 31.2 | 5.07 | 29.8 | 33.4 | 29.3 | 36.5 | 35.1 | 31.9 | 28 | 32.7 | 30.8 | 
Cc1ccc(/C=C/C(=O)C(C)C)cc1 | > 100 | 67.3 | > 100 | > 100 |  | > 100 | > 100 | > 100 | > 100 | > 100 | > 100 | > 100 | > 100 | > 100 | > 100 | > 100 |  |  |  | 
Cc1cccc(Cl)c1NC(N)=S | 82.5 | > 100 | > 100 | > 100 | 37.1 | > 100 | > 100 | > 100 | > 100 |  | > 100 | 79.8 | > 100 | > 100 | > 100 | > 100 |  |  |  | 
CCCCCCCC/C=C\CCCCCCCC(=O)OC[C@]1(CO)CCC(=O)O1 | > 100 | > 100 | > 100 | > 100 | > 100 | > 100 | > 100 | > 100 | > 100 | > 100 | > 100 | > 100 | > 100 | > 100 | > 100 | > 100 | > 100 |  | > 100 | > 100
Cc1cc(Cl)ccc1NC(=O)C(=O)Cc1ccc([N+](=O)[O-])c([N+](=O)[O-])c1CC(=O)C(=O)Nc1ccc(Cl)cc1C | > 100 | > 100 | > 100 | > 100 | > 100 | > 100 | > 100 | > 100 | > 100 | > 100 | > 100 | > 100 | > 100 | > 100 | > 100 | > 100 |  |  |  | 
O=C1N(CN2CCOCC2)CN(CN2CCOCC2)C(=O)N1Cc1ccc(-c2ccc(CN3C(=O)N(CN4CCOCC4)CN(CN4CCOCC4)C3=O)cc2)cc1 | 99.3 |  | 61.5 | 28.3 | > 91.2 | 69 | 77.3 | 47.5 | 54.5 | 35.4 | 39.3 | 82.9 | 31.2 | 49.6 | 37.9 | 40.6 | 13.6 |  | > 79.5 | 39.1
O=C(CSc1nnc(Cc2ccccc2)o1)Nc1ccccc1Cl | > 100 | > 100 |  | > 100 | > 100 | > 100 | > 100 | > 100 | > 100 | > 100 | > 100 | > 100 | > 100 |  |  | > 100 |  |  |  | 
COc1cc2c(cc1OC)C(=O)Cc1ccc3c(c1CNCC2)OCO3 | > 100 | > 100 | > 100 | > 100 | > 100 | > 100 | > 100 | > 100 | > 100 | > 100 | > 100 | > 100 | > 100 | > 100 | > 100 | > 100 |  |  |  | 
